Legend:
Format in all cases: in vitro ADME
CYP3A4 [1] = molecular target: T1, CYP3A4 (Homo sapiens, UniProt P08684); assay: Time-dependent inhibition assay of CYP3A4 in human liver microsomes
T1 construct: The pooled human liver microsomes (HLMs) were obtained from BD Biosciences Discovery Labware; tissue BD Biosciences Discovery Labware; host or cells: pooled human liver microsomes
Method: (§1) The time-dependent inhibition assay was conducted with an incubation time of 0, 5, 10, 15, and 30 min after a 30 min pre-incubation with 1 mg/mL HLMs in the presence of NADPH-generating system at 37 °C.

CYP3A4 [2] = molecular target: T1, CYP3A4; assay: CYP3A4 inhibition in pooled human liver microsomes (testosterone 6β-hydroxylation)
Method: (§2) The pooled human liver microsomes (HLMs) were obtained from BD Biosciences Discovery Labware. The HLMs were incubated with specific substrates of corresponding CYP450 isoenzymes under the reaction conditions in Table 1 according to previous reports (Dong et al. [2018]; Zhang et al. [2019]; Zhang, Feng, et al. [2020]). The incubation system also included alpinetin (Figure 1, 99%, Chengdu Munster Biothechnology Co, China, or specific inhibitors) and an β-NADPH generating system as previously reported in the potassium phosphate buffer with a final volume of 200 μL. The β-NADPH generating system contained NADP^+, glucose-6-phosphate, glucose-6-phosphate dehydrogenase, and MgCl2, which was used to initiate the reaction after a pre-incubation of 3 min. At the end of the reactions, the acetonitrile or trichloroacetic acid (for the evaluation of CYP2A6) was added for the termination of the reactions. All reagents were of at least analytical reagent grade obtained from Sigma Aldrich (USA). All incubations were performed in triplicate and the concentrations of metabolites were analysed with HPLC.
(§3) The effect of alpinetin on the activity of CYP1A2, 2A6, 3A4, 2C8, 2C9, 2C19, 2D6, and 2E1 was first evaluated with a concentration of 100 μM. The isoenzymes that were inhibited by alpinetin were further incubated with 0, 2.5, 5, 10, 25, 50, and 100 μM alpinetin to obtain the values of IC50.
(§4) Meanwhile, the kinetic studies were conducted in the presence of various substrate concentrations to obtain the values of Ki. The inhibition model was evaluated according to the following equations: v = (VmaxS)/[Km(1 + I/Ki) + S] for the competitive inhibition and v = (VmaxS)/[(Km + S(1 + I/KiKI)] for the non-competitive inhibition. The I is the concentration of the compound, Ki is the inhibition constant, S is the concentration of the substrate, and Km is the substrate concentration at half the maximum velocity (Vmax) of the reaction.

CYP2C9 [3] = molecular target: T2, CYP2C9 (Homo sapiens, UniProt P11712); assay: CYP2C9 inhibition in pooled human liver microsomes (diclofenac 4′-hydroxylation)
T2 construct: The pooled human liver microsomes (HLMs) were obtained from BD Biosciences Discovery Labware; tissue BD Biosciences Discovery Labware; host or cells: pooled human liver microsomes
T2 sequence (P11712 whole entry): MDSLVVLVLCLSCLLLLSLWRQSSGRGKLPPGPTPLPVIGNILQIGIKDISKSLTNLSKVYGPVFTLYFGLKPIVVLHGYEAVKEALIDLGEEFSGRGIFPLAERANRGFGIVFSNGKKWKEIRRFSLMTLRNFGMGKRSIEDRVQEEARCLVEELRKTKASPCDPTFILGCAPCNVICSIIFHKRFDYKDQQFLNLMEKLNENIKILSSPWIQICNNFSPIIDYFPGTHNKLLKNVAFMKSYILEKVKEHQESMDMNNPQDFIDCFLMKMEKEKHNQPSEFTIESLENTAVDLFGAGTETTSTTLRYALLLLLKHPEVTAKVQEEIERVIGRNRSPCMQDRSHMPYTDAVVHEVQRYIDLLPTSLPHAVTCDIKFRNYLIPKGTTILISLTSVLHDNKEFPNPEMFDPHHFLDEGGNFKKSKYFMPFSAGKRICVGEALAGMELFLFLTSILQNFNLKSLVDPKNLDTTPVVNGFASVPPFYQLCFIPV
Method: as §2, §3, §4

CYP2E1 [4] = molecular target: T3, CYP2E1 (Homo sapiens, UniProt P05181); assay: Time-dependent inhibition assay of CYP2E1 in human liver microsomes; settings: data not shown
T3 construct: The pooled human liver microsomes (HLMs) were obtained from BD Biosciences Discovery Labware; tissue BD Biosciences Discovery Labware; host or cells: pooled human liver microsomes
T3 sequence (P05181 whole entry): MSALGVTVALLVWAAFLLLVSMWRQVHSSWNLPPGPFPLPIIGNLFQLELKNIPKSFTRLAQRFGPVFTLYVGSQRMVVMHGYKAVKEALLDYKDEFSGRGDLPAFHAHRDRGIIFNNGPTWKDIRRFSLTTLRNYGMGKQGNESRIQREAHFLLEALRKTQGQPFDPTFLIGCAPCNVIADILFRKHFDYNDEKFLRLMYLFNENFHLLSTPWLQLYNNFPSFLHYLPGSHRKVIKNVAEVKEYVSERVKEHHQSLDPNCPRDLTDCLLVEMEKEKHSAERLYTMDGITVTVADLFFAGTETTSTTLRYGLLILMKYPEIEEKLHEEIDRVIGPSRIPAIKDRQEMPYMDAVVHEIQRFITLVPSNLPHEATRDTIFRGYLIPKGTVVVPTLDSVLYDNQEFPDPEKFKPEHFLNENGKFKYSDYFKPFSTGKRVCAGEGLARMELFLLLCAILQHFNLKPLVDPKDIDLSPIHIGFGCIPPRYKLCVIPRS
Method: as §1

CYP2E1 [5] = molecular target: T3, CYP2E1; assay: CYP2E1 inhibition in pooled human liver microsomes (chlorzoxazone 6-hydroxylation)
Method: as §2, §3, §4

CYP2C9 [6] = molecular target: T2, CYP2C9; assay: Time-dependent inhibition assay of CYP2C9 in human liver microsomes; settings: data not shown
Method: as §1

[7] = 100 μM alpinetin, relative to negative control
[8] = competitive model, various substrate concentrations

T1 sequence (P08684 whole entry): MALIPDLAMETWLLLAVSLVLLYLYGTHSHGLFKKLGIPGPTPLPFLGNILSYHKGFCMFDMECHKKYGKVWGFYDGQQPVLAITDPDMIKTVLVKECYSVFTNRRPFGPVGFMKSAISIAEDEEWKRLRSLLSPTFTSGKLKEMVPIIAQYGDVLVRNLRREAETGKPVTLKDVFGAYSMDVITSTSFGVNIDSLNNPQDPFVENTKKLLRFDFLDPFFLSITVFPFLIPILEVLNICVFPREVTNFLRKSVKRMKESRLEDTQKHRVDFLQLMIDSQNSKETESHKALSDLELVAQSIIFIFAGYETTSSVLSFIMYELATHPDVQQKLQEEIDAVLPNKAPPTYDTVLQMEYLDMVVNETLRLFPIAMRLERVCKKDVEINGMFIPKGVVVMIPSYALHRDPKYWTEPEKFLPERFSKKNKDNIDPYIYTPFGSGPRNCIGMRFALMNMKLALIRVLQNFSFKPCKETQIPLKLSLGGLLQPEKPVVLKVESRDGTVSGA

COc1cc(O)cc2c1C(=O)C[C@@H](c1ccccc1)O2 [alpinetin]
Kinact of time-dependent CYP3A4 inhibition (CYP3A4 [1]; 30 min pre-incubation, 1 mg/mL HLMs, substrate approx. 4-fold Km): 0.041 min⁻¹
Time dependence of CYP3A4 inhibition (CYP3A4 [1]; incubation 0, 5, 10, 15, and 30 min): time-dependent
Effect on CYP3A4 activity (CYP3A4 [2]; [7]): dramatically inhibitory effect
Inhibition model of CYP3A4 (CYP3A4 [2]; best-fitted model, stable Km): non-competitive
Ki (CYP3A4 [2]; non-competitive model, 0, 2, 5, 10, and 20 μM alpinetin, various concentrations of testosterone): 4.09 µM
IC50 (CYP3A4 [2]; pooled HLMs, 0-100 μM alpinetin, testosterone 50 μM): 8.23 µM
Effect on CYP2C9 activity (CYP2C9 [3]; [7]): dramatically inhibitory effect
Ki (CYP2C9 [3]; [8]): 6.42 µM
IC50 (CYP2C9 [3]; pooled HLMs, 0-100 μM alpinetin, diclofenac 10 μM): 12.6 µM
Inhibition model of CYP2C9 (CYP2C9 [3]; stable Vmax): competitively
Time dependence of CYP2E1 inhibition (CYP2E1 [4]): no time-dependent characteristics
Effect on CYP2E1 activity (CYP2E1 [5]; [7]): dramatically inhibitory effect
Ki (CYP2E1 [5]; [8]): 5.4 µM
IC50 (CYP2E1 [5]; pooled HLMs, 0-100 μM alpinetin, chlorzoxazone 120 μM): 11 µM
Inhibition model of CYP2E1 (CYP2E1 [5]; stable Vmax): competitively
Time dependence of CYP2C9 inhibition (CYP2C9 [6]): no time-dependent characteristics
